Laboratory results taken from patent US10604526B2, “Chemokine receptor modulators and uses thereof” (RAPT THERAPEUTICS, INC., priority 2016, dated 2020).

Target: T1, hCCR4 (Homo sapiens, UniProt P51679)
T1 sequence (P51679 1-360): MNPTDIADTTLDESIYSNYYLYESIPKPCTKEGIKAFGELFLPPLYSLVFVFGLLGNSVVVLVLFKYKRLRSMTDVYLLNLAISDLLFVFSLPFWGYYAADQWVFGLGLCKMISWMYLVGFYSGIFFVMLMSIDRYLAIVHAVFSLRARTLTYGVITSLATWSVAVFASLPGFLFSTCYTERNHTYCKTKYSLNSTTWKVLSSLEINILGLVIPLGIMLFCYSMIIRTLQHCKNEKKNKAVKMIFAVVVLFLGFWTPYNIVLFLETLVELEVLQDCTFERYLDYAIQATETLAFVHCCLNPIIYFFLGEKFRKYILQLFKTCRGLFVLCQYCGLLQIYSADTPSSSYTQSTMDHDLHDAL
Test: Calcium flux assay
Format: cell-based
Conditions: Chem5-hCCR4 cells, CCL22 at EC80 of 1.5 nM, FLIPR Calcium 6 dye; read-out: Potency (IC50)
Procedure, shortened: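 Chem5 cells expressing hCCR4 were serum-starved for 2 h, loaded with Calcium 6 dye plus 2.5 mM probenecid, then given compound for 1 h at 37 °C (0.5% DMSO). CCL22 was added from a 7.5 nM working solution (5× EC80 of 1.5 nM). IC50 came from ΔF/Fmin (485/525 nm) by 4-parameter fit.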

Molecule | IC50 [µM]
Cc1nn([C@H](C)c2ccc(Cl)cc2Cl)c2nc(N3CC(C4CCCN(CCS(N)(=O)=O)C4)C3)cnc12 (mixture of isomers) [Example 4, 2-((R)-3-(1-(1-((R)-1-(2,4-dichlorophenyl)ethyl)-3-methyl-1H-pyrazolo[3,4-b]pyrazin-6-yl)azetidin-3-yl)piperidin-1-yl)ethane-1-sulfonamide and 2-((S)-3-(1-(1-((R)-1-(2,4-dichlorophenyl)ethyl)-3-methyl-1H-pyrazolo[3,4-b]pyrazin-6-yl)azetidin-3-yl)piperidin-1-yl)ethane-1-sulfonamide] | 0.1 to 0.5
Cc1nn([C@H](C)c2ccc(Cl)cc2Cl)c2nc(N3CC([C@H]4CCCN(CC(=O)O)C4)C3)cnc12 (single isomer, unassigned) [Example 3] | > 0.5
4-((S)-3-(1-(1-((R)-1-(2,4-Dichlorophenyl)ethyl)-3-methyl-1H-pyrazolo[3,4-d]pyrimidin-6-yl)azetidin-3-yl)piperidin-1-yl)butanoic acid and 4-((R)-3-(1-(1-((R)-1-(2,4-dichlorophenyl)ethyl)-3-methyl-1H-pyrazolo[3,4-d]pyrimidin-6-yl)azetidin-3-yl)piperidin-1-yl)butanoic acid [Example 20] | 0.1 to 0.5
CC(=O)NCCN1CCC[C@@H](C2CN(c3cnc4c(C(F)(F)F)nn([C@H](C)c5ccc(Cl)cc5Cl)c4n3)C2)C1 (single isomer, unassigned) [Example 53] | 0.1 to 0.5
Cc1nn([C@H](C)c2ccc(Cl)cc2Cl)c2nc(N3CC([C@@H]4CCCN(CCNS(C)(=O)=O)C4)C3)cnc12 (single isomer, unassigned) [Example 98] | 0.1 to 0.5
CC(C)S(=O)(=O)NCCN1CCC[C@@H](C2CN(c3cnc4c(C(F)(F)F)nn([C@H](C)c5ccc(Cl)cc5Cl)c4n3)C2)C1 (single isomer, unassigned) [Example 110] | 0.1 to 0.5
CC(C)N1CCC[C@@H](C2CN(c3cnc4c(C#N)nn([C@H](C)c5ccc(Cl)cc5Cl)c4n3)C2)C1 (single isomer, unassigned) [Example 76] | 0.1 to 0.5
C[C@H](c1ccc(Cl)cc1Cl)n1nc(C#N)c2ncc(N3CC([C@@H]4CCCN(CCCC(N)=O)C4)C3)nc21 (single isomer, unassigned) [Example 79] | 0.1 to 0.5
1-((R)-1-(2,4-Dichlorophenyl)ethyl)-6-(3-((S)-1-(2-hydroxyethyl)piperidin-3-yl)azetidin-1-yl)-1H-pyrazolo[3,4-b]pyrazine-3-carboxamide and 1-((S)-1-(2,4-dichlorophenyl)ethyl)-6-(3-((S)-1-(2-hydroxyethyl)piperidin-3-yl)azetidin-1-yl)-1H-pyrazolo[3,4-b]pyrazine-3-carboxamide [Example 41] | < 0.1
Cc1nn([C@H](C)c2ccc(Cl)cc2Cl)c2nc(N3CC([C@@H]4CCCN(CCCO)C4)C3)cnc12 (single isomer, unassigned) [Example 15] | 0.1 to 0.5
4-((S)-3-(1-(1-((R)-1-(2,4-Dichlorophenyl)ethyl)-3-methyl-1H-pyrazolo[3,4-b]pyrazin-6-yl)azetidin-3-yl)piperidin-1-yl)butanoic acid and 4-((R)-3-(1-(1-((R)-1-(2,4-dichlorophenyl)ethyl)-3-methyl-1H-pyrazolo[3,4-b]pyrazin-6-yl)azetidin-3-yl)piperidin-1-yl)butanoic acid [Example 17] | < 0.1
CNS(=O)(=O)CCN1CCCC(C2CN(c3cnc4c(C#N)nn([C@H](C)c5ccc(Cl)cc5Cl)c4n3)C2)C1 (mixture of isomers) [Example 57, 2-(S)-3-(1-(3-cyano-1-((R)-1-(2,4-dichlorophenyl)ethyl)-1H-pyrazolo[3,4-b]pyrazin-6-yl)azetidin-3-yl)piperidin-1-yl)-N-methylethane-1-sulfonamide and 2-((R)-3-(1-(3-cyano-1-((R)-1-(2,4-dichlorophenyl)ethyl)-1H-pyrazolo[3,4-b]pyrazin-6-yl)azetidin-3-yl)piperidin-1-yl)-N-methylethane-1-sulfonamide] | < 0.1
CC(O)CN1CCC[C@H](C2CN(c3cnc4c(C#N)nn([C@H](C)c5ccc(Cl)cc5Cl)c4n3)C2)C1 (single isomer, unassigned) [Example 28] | < 0.1
CC(C)N1CCC[C@H](C2CN(c3cnc4c(C#N)nn([C@H](C)c5ccc(Cl)cc5Cl)c4n3)C2)C1 (single isomer, unassigned) [Example 77] | < 0.1
C[C@H](c1ccc(Cl)cc1Cl)n1nc(C#N)c2ncc(N3CC([C@@H]4CCCN(Cc5ncc[nH]5)C4)C3)nc21 (single isomer, unassigned) [Example 81] | 0.1 to 0.5

The remaining lines, values ahead:

IC50 [µM] | Molecule
< 0.1 | C[C@H](c1ccc(Cl)cc1Cl)n1nc(C#N)c2ncc(N3CC([C@@H]4CCCN(CC(C)(C)O)C4)C3)nc21 (single isomer, unassigned) [Example 70]
< 0.1 | Cc1nn([C@H](C)c2ccc(Cl)cc2Cl)c2nc(N3CC(C4CCCN(CCNS(=O)(=O)C(C)C)C4)C3)cnc12 (mixture of isomers) [Example 65, N-(2-((R)-3-(1-(1-((R)-1-(2,4-dichlorophenyl)ethyl)-3-methyl-1H-pyrazolo[3,4-b]pyrazin-6-yl)azetidin-3-yl)piperidin-1-yl)ethyl)propane-2-sulfonamide and N-(2-((S)-3-(1-(1-((R)-1-(2,4-dichlorophenyl)ethyl)-3-methyl-1H-pyrazolo[3,4-b]pyrazin-6-yl)azetidin-3-yl)piperidin-1-yl)ethyl)propane-2-sulfonamide]
< 0.1 | C[C@H](c1ccc(Cl)cc1Cl)n1nc(C#N)c2ncc(N3CC(C4CCCN(Cc5c[nH]cn5)C4)C3)nc21 (mixture of isomers) [Example 60, 6-(3-((S)-1-(1H-imidazol-4-yl)methyl)piperidin-3-yl)azetidin-1-yl)-1-((R)-1-(2,4-dichlorophenyl)ethyl)-1H-pyrazolo[3,4-b]pyrazine-3-carbonitrile and 6-(3-((R)-1-((1H-imidazol-4-yl)methyl)piperidin-3-yl)azetidin-1-yl)-1-((R)-1-(2,4-dichlorophenyl)ethyl)-1H-pyrazolo[3,4-b]pyrazine-3-carbonitrile]
< 0.1 | Cc1nn([C@H](C)c2ccc(Cl)cc2Cl)c2nc(N3CC([C@@H]4CCCN(CCNC(=O)C(C)C)C4)C3)cnc12 (single isomer, unassigned) [Example 91]
< 0.1 | CC(=O)N[C@H](C)CN1CCC[C@H](C2CN(c3cnc4c(C(F)(F)F)nn([C@H](C)c5ccc(Cl)cc5Cl)c4n3)C2)C1 [Example 105, N—((R)-1-((R)-3-(1-(1-((R)-1-(2,4-dichlorophenyl)ethyl)-3-(trifluoromethyl)-1H-pyrazolo[3,4-b]pyrazin-6-yl)azetidin-3-yl)piperidin-1-yl)propan-2-yl)acetamide]
< 0.1 | Cc1nn([C@H](C)c2ccc(Cl)cc2Cl)c2nc(N3CC([C@H]4CCCN(CCS(N)(=O)=O)C4)C3)cnc12 (single isomer, unassigned) [Example 6]
< 0.1 | C[C@H](c1ccc(Cl)cc1Cl)n1nc(C#N)c2ncc(N3CC([C@@H]4CCCN(CCC(N)=O)C4)C3)nc21 (single isomer, unassigned) [Example 25]
< 0.1 | C[C@H](c1ccc(Cl)cc1Cl)n1nc(C(F)(F)F)c2ncc(N3CC([C@H]4CCCN(C[C@@H](C)O)C4)C3)nc21 [Example 103, (R)-1-((R)-3-(1-(1-((R)-1-(2,4-dichlorophenyl)ethyl)-3-(trifluoromethyl)-1H-pyrazolo[3,4-b]pyrazin-6-yl)azetidin-3-yl)piperidin-1-yl)propan-2-ol]
< 0.1 | 1-((R)-1-(2,4-dichlorophenyl)ethyl)-6-(3-((R)-1-((R)-4-hydroxybutan-2-yl)piperidin-3-yl)azetidin-1-yl)-1H-pyrazolo[3,4-b]pyrazine-3-carbonitrile and 1-((R)-1-(2,4-dichlorophenyl)ethyl)-6-(3-((R)-1-((S)-4-hydroxybutan-2-yl)piperidin-3-yl)azetidin-1-yl)-1H-pyrazolo[3,4-b]pyrazine-3-carbonitrile [Example 82]
< 0.1 | Cc1nn([C@H](C)c2ccc(Cl)cc2Cl)c2nc(N3CC([C@H]4CCCN(CCNC(=O)C(C)C)C4)C3)cnc12 (single isomer, unassigned) [Example 90]
< 0.1 | CC(C)C(=O)NCCN1CCCC(C2CN(c3cnc4c(C(F)(F)F)nn([C@H](C)c5ccc(Cl)cc5Cl)c4n3)C2)C1 (mixture of isomers) [Example 48, N-(2-((R)-3-(1-(1-((R)-1-(2,4-Dichlorophenyl)ethyl)-3-(trifluoromethyl)-1H-pyrazolo[3,4-b]pyrazin-6-yl)azetidin-3-yl)piperidin-1-yl)ethyl)isobutyramide and N-(2-((S)-3-(1-(1-((R)-1-(2,4-dichlorophenyl)ethyl)-3-(trifluoromethyl)-1H-pyrazolo[3,4-b]pyrazin-6-yl)azetidin-3-yl)piperidin-1-yl)ethyl)isobutyramide]
